Reference: patent US11542235B2, “Herbicidal 3-azaspiro[5.5] undecane-8, 10-dione compounds” (SYNGENTA PARTICIPATIONS AG, priority 2018, dated 2023)

Tested on: Lolium perenne (LOLPE)
Experiment: Glasshouse herbicidal test, pre- and post-emergence, Lolium perenne
Type: in vivo
Conditions: post-emergence, 250 g/h, evaluated after 13 days, five point scale
Description: (§1) Seeds of a variety of test species are sown in standard soil in pots (Lolium perenne (LOLPE), Setaria faberi (SETFA), Alopecurus myosuroides (ALOMY), Echinochloa crus-galli (ECHCG), Avena fatua (AVEFA)). After cultivation for one day (pre-emergence) or after 8 days cultivation (post-emergence) under controlled conditions in a glasshouse (at 24/16° C., day/night; 14 hours light; 65% humidity), the plants are sprayed with an aqueous spray solution derived from the formulation of the technical active ingredient in acetone/water (50:50) solution containing 0.5% Tween 20 (polyoxyethelyene sorbitan monolaurate, CAS RN 9005-64-5). Compounds are applied at […]. The test plants are then grown in a glasshouse under controlled conditions in a glasshouse (at 24/16° C., day/night; 14 hours light; 65% humidity) and watered twice daily. After 13 days for pre and post-emergence, the test is evaluated for the percentage damage caused to the plant. The biological activities are shown in the following table on a five point scale (5=80-100%; 4=60-79%; 3=40-59%; 2=20-39%; 1=0-19%).

| Structure (SMILES) | percentage damage caused to the plant, LOLPE POST |
| --- | --- |
| CC#Cc1cc(C)c(C2C(=O)CC3(CCN(C(=O)C(F)F)CC3)CC2=O)c(OC)c1 [Compound A19] | 5 (5=80-100%) |
| CC#Cc1cc(C)c(C2C(=O)CC3(CCN(C(=O)C(C)(C)C)CC3)CC2=O)c(OC)c1 [Compound A20] | 5 (5=80-100%) |
| CC#Cc1cc(C)c(C2C(=O)CC3(CCN(C(=O)C(C)F)CC3)CC2=O)c(C)c1 (stereo not shown) [Compound A21] | 5 (5=80-100%) |
| CC#Cc1cc(C)c(C2C(=O)CC3(CCN(C(=O)C(C)(F)F)CC3)CC2=O)c(C)c1 [Compound A22] | 5 (5=80-100%) |
| CC#Cc1cc(C)c(C2C(=O)CC3(CCN(C(=O)C(C)(C)F)CC3)CC2=O)c(C)c1 [Compound A23] | 5 (5=80-100%) |

Same assay, conditions: pre-emergence, 250 g/h, evaluated after 13 days, five point scale

| Structure (SMILES) | percentage damage caused to the plant, LOLPE PRE |
| --- | --- |
| CC#Cc1cc(C)c(C2C(=O)CC3(CCN(C(=O)C(F)F)CC3)CC2=O)c(OC)c1 [Compound A19] | 5 (5=80-100%) |
| CC#Cc1cc(C)c(C2C(=O)CC3(CCN(C(=O)C(C)(C)C)CC3)CC2=O)c(OC)c1 [Compound A20] | 5 (5=80-100%) |
| CC#Cc1cc(C)c(C2C(=O)CC3(CCN(C(=O)C(C)F)CC3)CC2=O)c(C)c1 (stereo not shown) [Compound A21] | 5 (5=80-100%) |
| CC#Cc1cc(C)c(C2C(=O)CC3(CCN(C(=O)C(C)(F)F)CC3)CC2=O)c(C)c1 [Compound A22] | 5 (5=80-100%) |
| CC#Cc1cc(C)c(C2C(=O)CC3(CCN(C(=O)C(C)(C)F)CC3)CC2=O)c(C)c1 [Compound A23] | 5 (5=80-100%) |

Tested on: Setaria faberi (SETFA)
Experiment: Glasshouse herbicidal test, pre- and post-emergence, Setaria faberi
Type: in vivo
Conditions: post-emergence, 250 g/h, evaluated after 13 days, five point scale
Description: as §1

| Structure (SMILES) | percentage damage caused to the plant, SETFA POST |
| --- | --- |
| CC#Cc1cc(C)c(C2C(=O)CC3(CCN(C(=O)C(F)F)CC3)CC2=O)c(OC)c1 [Compound A19] | 5 (5=80-100%) |
| CC#Cc1cc(C)c(C2C(=O)CC3(CCN(C(=O)C(C)(C)C)CC3)CC2=O)c(OC)c1 [Compound A20] | 5 (5=80-100%) |
| CC#Cc1cc(C)c(C2C(=O)CC3(CCN(C(=O)C(C)F)CC3)CC2=O)c(C)c1 (stereo not shown) [Compound A21] | 5 (5=80-100%) |
| CC#Cc1cc(C)c(C2C(=O)CC3(CCN(C(=O)C(C)(F)F)CC3)CC2=O)c(C)c1 [Compound A22] | 5 (5=80-100%) |
| CC#Cc1cc(C)c(C2C(=O)CC3(CCN(C(=O)C(C)(C)F)CC3)CC2=O)c(C)c1 [Compound A23] | 5 (5=80-100%) |

Same assay, conditions: pre-emergence, 250 g/h, evaluated after 13 days, five point scale

| Structure (SMILES) | percentage damage caused to the plant, SETFA PRE |
| --- | --- |
| CC#Cc1cc(C)c(C2C(=O)CC3(CCN(C(=O)C(F)F)CC3)CC2=O)c(OC)c1 [Compound A19] | 5 (5=80-100%) |
| CC#Cc1cc(C)c(C2C(=O)CC3(CCN(C(=O)C(C)(C)C)CC3)CC2=O)c(OC)c1 [Compound A20] | 5 (5=80-100%) |
| CC#Cc1cc(C)c(C2C(=O)CC3(CCN(C(=O)C(C)F)CC3)CC2=O)c(C)c1 (stereo not shown) [Compound A21] | 5 (5=80-100%) |
| CC#Cc1cc(C)c(C2C(=O)CC3(CCN(C(=O)C(C)(F)F)CC3)CC2=O)c(C)c1 [Compound A22] | 5 (5=80-100%) |
| CC#Cc1cc(C)c(C2C(=O)CC3(CCN(C(=O)C(C)(C)F)CC3)CC2=O)c(C)c1 [Compound A23] | 5 (5=80-100%) |

Tested on: Alopecurus myosuroides (ALOMY)
Experiment: Glasshouse herbicidal test, pre- and post-emergence, Alopecurus myosuroides
Type: in vivo
Conditions: post-emergence, 250 g/h, evaluated after 13 days, five point scale
Description: as §1

| Structure (SMILES) | percentage damage caused to the plant, ALOMY POST |
| --- | --- |
| CC#Cc1cc(C)c(C2C(=O)CC3(CCN(C(=O)C(F)F)CC3)CC2=O)c(OC)c1 [Compound A19] | 5 (5=80-100%) |
| CC#Cc1cc(C)c(C2C(=O)CC3(CCN(C(=O)C(C)(C)C)CC3)CC2=O)c(OC)c1 [Compound A20] | 5 (5=80-100%) |
| CC#Cc1cc(C)c(C2C(=O)CC3(CCN(C(=O)C(C)F)CC3)CC2=O)c(C)c1 (stereo not shown) [Compound A21] | 5 (5=80-100%) |
| CC#Cc1cc(C)c(C2C(=O)CC3(CCN(C(=O)C(C)(F)F)CC3)CC2=O)c(C)c1 [Compound A22] | 5 (5=80-100%) |
| CC#Cc1cc(C)c(C2C(=O)CC3(CCN(C(=O)C(C)(C)F)CC3)CC2=O)c(C)c1 [Compound A23] | 5 (5=80-100%) |

Same assay, conditions: pre-emergence, 250 g/h, evaluated after 13 days, five point scale

| Structure (SMILES) | percentage damage caused to the plant, ALOMY PRE |
| --- | --- |
| CC#Cc1cc(C)c(C2C(=O)CC3(CCN(C(=O)C(F)F)CC3)CC2=O)c(OC)c1 [Compound A19] | 5 (5=80-100%) |
| CC#Cc1cc(C)c(C2C(=O)CC3(CCN(C(=O)C(C)(C)C)CC3)CC2=O)c(OC)c1 [Compound A20] | 5 (5=80-100%) |
| CC#Cc1cc(C)c(C2C(=O)CC3(CCN(C(=O)C(C)F)CC3)CC2=O)c(C)c1 (stereo not shown) [Compound A21] | 5 (5=80-100%) |
| CC#Cc1cc(C)c(C2C(=O)CC3(CCN(C(=O)C(C)(F)F)CC3)CC2=O)c(C)c1 [Compound A22] | 5 (5=80-100%) |
| CC#Cc1cc(C)c(C2C(=O)CC3(CCN(C(=O)C(C)(C)F)CC3)CC2=O)c(C)c1 [Compound A23] | 5 (5=80-100%) |

Tested on: Echinochloa crus-galli (ECHCG)
Experiment: Glasshouse herbicidal test, pre- and post-emergence, Echinochloa crus-galli
Type: in vivo
Conditions: post-emergence, 250 g/h, evaluated after 13 days, five point scale
Description: as §1

| Structure (SMILES) | percentage damage caused to the plant, ECHCG POST |
| --- | --- |
| CC#Cc1cc(C)c(C2C(=O)CC3(CCN(C(=O)C(C)(C)C)CC3)CC2=O)c(OC)c1 [Compound A20] | 5 (5=80-100%) |
| CC#Cc1cc(C)c(C2C(=O)CC3(CCN(C(=O)C(C)F)CC3)CC2=O)c(C)c1 (stereo not shown) [Compound A21] | 5 (5=80-100%) |
| CC#Cc1cc(C)c(C2C(=O)CC3(CCN(C(=O)C(C)(F)F)CC3)CC2=O)c(C)c1 [Compound A22] | 5 (5=80-100%) |
| CC#Cc1cc(C)c(C2C(=O)CC3(CCN(C(=O)C(C)(C)F)CC3)CC2=O)c(C)c1 [Compound A23] | 5 (5=80-100%) |

Same assay, conditions: pre-emergence, 250 g/h, evaluated after 13 days, five point scale

| Structure (SMILES) | percentage damage caused to the plant, ECHCG PRE |
| --- | --- |
| CC#Cc1cc(C)c(C2C(=O)CC3(CCN(C(=O)C(F)F)CC3)CC2=O)c(OC)c1 [Compound A19] | 5 (5=80-100%) |
| CC#Cc1cc(C)c(C2C(=O)CC3(CCN(C(=O)C(C)(C)C)CC3)CC2=O)c(OC)c1 [Compound A20] | 5 (5=80-100%) |
| CC#Cc1cc(C)c(C2C(=O)CC3(CCN(C(=O)C(C)F)CC3)CC2=O)c(C)c1 (stereo not shown) [Compound A21] | 5 (5=80-100%) |
| CC#Cc1cc(C)c(C2C(=O)CC3(CCN(C(=O)C(C)(F)F)CC3)CC2=O)c(C)c1 [Compound A22] | 5 (5=80-100%) |
| CC#Cc1cc(C)c(C2C(=O)CC3(CCN(C(=O)C(C)(C)F)CC3)CC2=O)c(C)c1 [Compound A23] | 5 (5=80-100%) |

Tested on: Avena fatua (AVEFA)
Experiment: Glasshouse herbicidal test, pre- and post-emergence, Avena fatua
Type: in vivo
Conditions: post-emergence, 250 g/h, evaluated after 13 days, five point scale
Description: as §1

| Structure (SMILES) | percentage damage caused to the plant, AVEFA POST |
| --- | --- |
| CC#Cc1cc(C)c(C2C(=O)CC3(CCN(C(=O)C(F)F)CC3)CC2=O)c(OC)c1 [Compound A19] | 5 (5=80-100%) |
| CC#Cc1cc(C)c(C2C(=O)CC3(CCN(C(=O)C(C)(C)C)CC3)CC2=O)c(OC)c1 [Compound A20] | 5 (5=80-100%) |
| CC#Cc1cc(C)c(C2C(=O)CC3(CCN(C(=O)C(C)F)CC3)CC2=O)c(C)c1 (stereo not shown) [Compound A21] | 5 (5=80-100%) |
| CC#Cc1cc(C)c(C2C(=O)CC3(CCN(C(=O)C(C)(F)F)CC3)CC2=O)c(C)c1 [Compound A22] | 5 (5=80-100%) |
| CC#Cc1cc(C)c(C2C(=O)CC3(CCN(C(=O)C(C)(C)F)CC3)CC2=O)c(C)c1 [Compound A23] | 5 (5=80-100%) |

Same assay, conditions: pre-emergence, 250 g/h, evaluated after 13 days, five point scale

| Structure (SMILES) | percentage damage caused to the plant, AVEFA PRE |
| --- | --- |
| CC#Cc1cc(C)c(C2C(=O)CC3(CCN(C(=O)C(F)F)CC3)CC2=O)c(OC)c1 [Compound A19] | 5 (5=80-100%) |
| CC#Cc1cc(C)c(C2C(=O)CC3(CCN(C(=O)C(C)(C)C)CC3)CC2=O)c(OC)c1 [Compound A20] | 5 (5=80-100%) |
| CC#Cc1cc(C)c(C2C(=O)CC3(CCN(C(=O)C(C)F)CC3)CC2=O)c(C)c1 (stereo not shown) [Compound A21] | 5 (5=80-100%) |
| CC#Cc1cc(C)c(C2C(=O)CC3(CCN(C(=O)C(C)(F)F)CC3)CC2=O)c(C)c1 [Compound A22] | 5 (5=80-100%) |
| CC#Cc1cc(C)c(C2C(=O)CC3(CCN(C(=O)C(C)(C)F)CC3)CC2=O)c(C)c1 [Compound A23] | 5 (5=80-100%) |
